According to US6706663B2, “Herbicidal 3-heterocyclic substituted benzisothiazole and benzisoxazole compounds” (Wyeth, priority 2000, dated 2004):

Experiments:
[1] = tested on: IPOHE (Ipomoea hederacea); assay: Preemergence herbicidal evaluation; format: in vivo, (L.) Jacq.; conditions: rated 4-5 weeks after treatment
SETVI (Setaria viridis) [2] = assay: Preemergence herbicidal evaluation; format: in vivo, (L.) Beau; conditions: rated 4-5 weeks after treatment
How it was run: (§1)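 Test compound is applied in aqueous acetone to cups just after seeding. Cups are watered and maintained on greenhouse benches. Each cup is scored 0–9 by eye relative to a control after four to five weeks.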

[3] = tested on: ECHCG (Echinochloa crus-galli); assay: Preemergence herbicidal evaluation; format: in vivo, (L.) Beau; conditions: rated 4-5 weeks after treatment
How it was run: as §1

CYPIR (Cyperus iria) = assay: Flooded paddy, preemergence weed control; format: in vivo; conditions: rated 3-4 weeks after treatment, 0-9 rating scale
How it was run: (§2)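 Visual 0-9 rating versus control, scoring stand, vigor, malformation, size, chlorosis and overall appearance. Silt loam soil, propagules in top 0.5 cm; flood depth 1.5–3 cm held for the whole test; greenhouse.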

[4] = tested on: IPOHE (Ipomoea hederacea); assay: Postemergence herbicidal evaluation; format: in vivo, (L.) Jacq.; conditions: postemergence
How it was run: (§3)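 Seedlings grown for about two weeks were sprayed postemergence and then kept under standard greenhouse care. Injury was rated visually 4–5 weeks after treatment on a 0–9 scale against untreated controls, and ratings from repeat tests were averaged.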

[5] = tested on: SAGPY (Sagittaria pygmaea); assay: Flooded paddy, preemergence weed control; format: in vivo, L.; conditions: rated 3-4 weeks after treatment, 0-9 rating scale
How it was run: as §2

[6] = tested on: GLXMAW (Soybean, Williams); assay: Postemergence herbicidal evaluation; format: in vivo, Glycine max, (L.) Merr. cv Williams; conditions: postemergence
How it was run: as §3

GALAP (Galium aparine) = assay: Postemergence herbicidal evaluation; format: in vivo; conditions: postemergence
How it was run: as §3

[7] = tested on: ECHORC (Echinochloa oryzoides); assay: Flooded paddy, preemergence weed control; format: in vivo, Echinochloa oryzoides (Ard.) Fritsch.; conditions: rated 3-4 weeks after treatment, 0-9 rating scale
How it was run: as §2

ORYSAT (Rice, Tebonnet) [8] = assay: Postemergence herbicidal evaluation; format: in vivo, Oryza sativa, (L.) Tebonnet; conditions: postemergence
How it was run: as §3

[9] = tested on: MOOVA (Monochoria vaginalis); assay: Flooded paddy, preemergence weed control; format: in vivo, Presl.; conditions: rated 3-4 weeks after treatment, 0-9 rating scale
How it was run: as §2

ORYSAT (Rice, Tebonnet) [10] = assay: Preemergence herbicidal evaluation; format: in vivo, Oryza sativa, (L.) Tebonnet; conditions: rated 4-5 weeks after treatment
[11] = tested on: CHEAL (Chenopodium album); assay: Preemergence herbicidal evaluation; format: in vivo, L.; conditions: rated 4-5 weeks after treatment
How it was run: as §1

[12] = tested on: CASOB (Cassia obtusifolia); assay: Preemergence herbicidal evaluation; format: in vivo, L.; conditions: rated 4-5 weeks after treatment
How it was run: as §1

[13] = tested on: AMBEL (Ambrosia artemisifolia); assay: Preemergence herbicidal evaluation; format: in vivo, L.; conditions: rated 4-5 weeks after treatment
How it was run: as §1

ZEAMX (Corn, Field) = assay: Postemergence herbicidal evaluation; format: in vivo, Zea mays, L.; conditions: postemergence
How it was run: as §3

SETVI (Setaria viridis) [14] = assay: Postemergence herbicidal evaluation; format: in vivo, (L.) Beau; conditions: postemergence
How it was run: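 Ratings use a 0-9 visual scale covering stand, vigor, malformation, size, chlorosis and appearance versus a control, scored 4-5 weeks post-spray. Roughly two-week-old seedlings received about 0.0040-1.000 kg/ha active, applied in 50/50 acetone/water with 0.5% TWEEN 20. Multiple tests per compound were averaged.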

[15] = tested on: ECHCG (Echinochloa crus-galli); assay: Postemergence herbicidal evaluation; format: in vivo, (L.) Beau; conditions: postemergence
How it was run: as §3

[16] = tested on: ABUTH (Abutilon theophrasti); assay: Postemergence herbicidal evaluation; format: in vivo, Medic.; conditions: postemergence
How it was run: as §3

ORYSAT (Rice, Tebonnet) [17] = assay: Flooded paddy, post-transplant rice tolerance; format: in vivo, Oryza sativa, (L.) Tebonnet; conditions: flooded paddy, post-transplant rice, rated 3-4 weeks after treatment, 0-9 rating scale
How it was run: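 Seedlings aged ten days are transplanted in pairs into undrained pots of silt loam, which are then flooded to a depth of 1.5 to 3 cm. After herbicide application the pots are kept in a greenhouse with the flood maintained. Plants are rated 0-9 by visual comparison with controls.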

CC1=CC(C)(C)OC(c2nsc3ccc(-n4c(=O)cc(C(F)(F)F)n(C)c4=O)cc23)C1 (stereo not shown) [Compound 65, 3-[3-(3,6-dihydro-4,6,6-trimethyl-2H-pyran-2-yl)-1,2-benzisothiazol-5-yl]-1-methyl-6-(trifluoromethyl)uracil]
Preemergence herbicidal rating IPOHE ([1]; Rate 0.0620 kg/ha): 0.0
Preemergence herbicidal rating IPOHE ([1]; Rate 0.1250 kg/ha): 3.0
Preemergence herbicidal rating IPOHE ([1]; Rate 0.2500 kg/ha): 9.0
Preemergence herbicidal rating SETVI (SETVI (Setaria viridis) [2]; Rate 0.0620 kg/ha): 9.0
Preemergence herbicidal rating SETVI (SETVI (Setaria viridis) [2]; Rate 0.1250 kg/ha): 9.0
Preemergence herbicidal rating SETVI (SETVI (Setaria viridis) [2]; Rate 0.2500 kg/ha): 9.0
Preemergence herbicidal rating ECHCG ([3]; Rate 0.0620 kg/ha): 9.0
Preemergence herbicidal rating ECHCG ([3]; Rate 0.1250 kg/ha): 9.0
Preemergence herbicidal rating ECHCG ([3]; Rate 0.2500 kg/ha): 9.0
herbicidal rating, CYPIR (CYPIR (Cyperus iria); rate 0.0080 kg/ha): 0.0
herbicidal rating, CYPIR (CYPIR (Cyperus iria); rate 0.0320 kg/ha): 0.0
herbicidal rating, CYPIR (CYPIR (Cyperus iria); rate 0.1250 kg/ha): 9.0
IPOHE herbicidal rating ([4]; rate 0.0320 kg/ha): 9.0
IPOHE herbicidal rating ([4]; rate 0.0620 kg/ha): 9.0
herbicidal rating, SAGPY ([5]; rate 0.0080 kg/ha): 0.0
herbicidal rating, SAGPY ([5]; rate 0.0320 kg/ha): 0.0
herbicidal rating, SAGPY ([5]; rate 0.1250 kg/ha): 0.0
GLXMAW herbicidal rating ([6]; rate 0.0320 kg/ha): 5.5
GLXMAW herbicidal rating ([6]; rate 0.0620 kg/ha): 7.0
GALAP herbicidal rating (GALAP (Galium aparine); rate 0.0320 kg/ha): 5.0
GALAP herbicidal rating (GALAP (Galium aparine); rate 0.0620 kg/ha): 6.0
herbicidal rating, ECHORC ([7]; rate 0.0080 kg/ha): 0.0
herbicidal rating, ECHORC ([7]; rate 0.0320 kg/ha): 0.0
herbicidal rating, ECHORC ([7]; rate 0.1250 kg/ha): 7.0
ORYSAT herbicidal rating (ORYSAT (Rice, Tebonnet) [8]; rate 0.0320 kg/ha): 4.0
ORYSAT herbicidal rating (ORYSAT (Rice, Tebonnet) [8]; rate 0.0620 kg/ha): 4.5
herbicidal rating, MOOVA ([9]; rate 0.0080 kg/ha): 0.0
herbicidal rating, MOOVA ([9]; rate 0.0320 kg/ha): 0.0
herbicidal rating, MOOVA ([9]; rate 0.1250 kg/ha): 3.0
Preemergence herbicidal rating ORYSAT (ORYSAT (Rice, Tebonnet) [10]; Rate 0.0620 kg/ha): 7.0
Preemergence herbicidal rating ORYSAT (ORYSAT (Rice, Tebonnet) [10]; Rate 0.1250 kg/ha): 7.0
Preemergence herbicidal rating ORYSAT (ORYSAT (Rice, Tebonnet) [10]; Rate 0.2500 kg/ha): 9.0
Preemergence herbicidal rating CHEAL ([11]; Rate 0.0620 kg/ha): 9.0
Preemergence herbicidal rating CHEAL ([11]; Rate 0.1250 kg/ha): 9.0
Preemergence herbicidal rating CHEAL ([11]; Rate 0.2500 kg/ha): 9.0
Preemergence herbicidal rating CASOB ([12]; Rate 0.0620 kg/ha): 0.0
Preemergence herbicidal rating CASOB ([12]; Rate 0.1250 kg/ha): 0.0
Preemergence herbicidal rating CASOB ([12]; Rate 0.2500 kg/ha): 0.0
Preemergence herbicidal rating AMBEL ([13]; Rate 0.0620 kg/ha): 8.0
Preemergence herbicidal rating AMBEL ([13]; Rate 0.1250 kg/ha): 9.0
Preemergence herbicidal rating AMBEL ([13]; Rate 0.2500 kg/ha): 9.0
ZEAMX herbicidal rating (ZEAMX (Corn, Field); rate 0.0320 kg/ha): 5.0
ZEAMX herbicidal rating (ZEAMX (Corn, Field); rate 0.0620 kg/ha): 5.5
SETVI herbicidal rating (SETVI (Setaria viridis) [14]; rate 0.0320 kg/ha): 3.0
SETVI herbicidal rating (SETVI (Setaria viridis) [14]; rate 0.0620 kg/ha): 7.0
ECHCG herbicidal rating ([15]; rate 0.0320 kg/ha): 4.0
ECHCG herbicidal rating ([15]; rate 0.0620 kg/ha): 5.0
ABUTH herbicidal rating ([16]; rate 0.0320 kg/ha): 9.0
ABUTH herbicidal rating ([16]; rate 0.0620 kg/ha): 9.0
herbicidal rating, ORYSAT (rice tolerance) (ORYSAT (Rice, Tebonnet) [17]; rate 0.0080 kg/ha): 0.0
herbicidal rating, ORYSAT (rice tolerance) (ORYSAT (Rice, Tebonnet) [17]; rate 0.0320 kg/ha): 0.0
herbicidal rating, ORYSAT (rice tolerance) (ORYSAT (Rice, Tebonnet) [17]; rate 0.1250 kg/ha): 0.0
